Experimental data taken from patent US5610303A, “Arylamino pyrimidine compound” (Ube Industries, Ltd., priority 1992, dated 1997).
pIC50: −log10 of the molar value.

Experiments:
Assay type in all cases: biochemical
[1] = molecular target: T1, B type monoamine oxidase (Rattus norvegicus, UniProt P19643); assay: B type monoamine oxidase-inhibiting activity (Test example 3; rat cerebrum homogenate, 14C-β-PEA substrate); details: β-PEA 20 μM, preincubated 37° C. 30 minutes, Hill analysis, read-out: IC50 value, Inhibition of B type monoamine oxidase
T1 construct: a rat cerebrum homogenized in a 0.1M phosphate buffer was used; from tissue; host or cells: rat cerebrum homogenate
T1 sequence (P19643 1-520): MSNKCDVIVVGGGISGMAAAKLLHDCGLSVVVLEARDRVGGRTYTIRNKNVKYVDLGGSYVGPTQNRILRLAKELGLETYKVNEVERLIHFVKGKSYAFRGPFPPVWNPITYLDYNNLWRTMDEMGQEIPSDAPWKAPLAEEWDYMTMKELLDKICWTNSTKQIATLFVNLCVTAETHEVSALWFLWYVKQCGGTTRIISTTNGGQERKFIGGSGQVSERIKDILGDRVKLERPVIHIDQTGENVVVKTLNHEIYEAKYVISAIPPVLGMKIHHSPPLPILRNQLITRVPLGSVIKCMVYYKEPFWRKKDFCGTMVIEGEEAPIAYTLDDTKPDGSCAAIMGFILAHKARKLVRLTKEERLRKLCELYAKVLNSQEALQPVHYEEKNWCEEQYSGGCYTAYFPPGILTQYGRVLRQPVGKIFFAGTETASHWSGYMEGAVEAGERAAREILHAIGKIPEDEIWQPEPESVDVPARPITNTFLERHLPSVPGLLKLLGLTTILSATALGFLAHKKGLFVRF
Description: (§1) A type and B type monoamine oxidase-inhibiting activity
(§2) As an enzyme source, a rat cerebrum homogenized in a 0.1M phosphate buffer was used.
(§3) That is, the rat cerebrum homogenate suitably diluted with a 0.1M phosphate buffer and each compound to be tested were preincubated at 37° C. for 30 minutes. […] After the mixture was separated into two layers by centrifugation, a part of the organic layer was mixed with liquid scintillation cocktail. Radioactivity extracted into the organic layer was measured by a liquid scintillation counter to calculate the enzyme activity.
(§4) Inhibiting rates were calculated from enzyme activities in the presence of the compounds to be tested having various concentrations based on enzyme activities in the absence of the compounds to be tested, with absorbance when reaction was carried out in the absence of the homogenate being defined as blank. IC50 values were calculated by Hill analysis.

[2] = molecular target: T2, butyrylcholinesterase (Rattus norvegicus, UniProt Q9JKC1); assay: Butyrylcholinesterase-inhibiting activity (Test example 2; rat serum, modified Ellman method)
T2 construct: As an enzyme source, a rat serum was used; from tissue; host or cells: rat serum
T2 sequence (Q9JKC1 24-597): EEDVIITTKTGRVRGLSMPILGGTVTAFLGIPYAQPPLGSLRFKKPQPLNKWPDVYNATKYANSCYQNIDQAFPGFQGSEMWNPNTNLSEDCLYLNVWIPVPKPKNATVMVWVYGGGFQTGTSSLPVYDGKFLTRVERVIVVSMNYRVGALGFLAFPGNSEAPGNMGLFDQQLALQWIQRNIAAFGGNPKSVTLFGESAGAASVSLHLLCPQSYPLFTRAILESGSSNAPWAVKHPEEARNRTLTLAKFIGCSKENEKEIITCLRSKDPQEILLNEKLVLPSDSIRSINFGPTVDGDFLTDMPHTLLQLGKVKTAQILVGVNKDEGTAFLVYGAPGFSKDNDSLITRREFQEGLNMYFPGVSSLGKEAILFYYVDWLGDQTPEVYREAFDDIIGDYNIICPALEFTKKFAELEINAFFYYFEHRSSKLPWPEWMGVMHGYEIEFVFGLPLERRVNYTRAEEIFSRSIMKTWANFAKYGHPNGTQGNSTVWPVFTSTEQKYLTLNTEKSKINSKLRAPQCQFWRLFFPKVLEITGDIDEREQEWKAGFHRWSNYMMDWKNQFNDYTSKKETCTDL
Description: Butyrylcholinesterase-inhibiting activity
As an enzyme source, a rat serum was used.
The activity of butyrylcholinesterase was measured by a partially modified method of the above method of Ellman et. al. That is, to the rat serum suitably diluted with a 0.1M phosphate buffer were added each compound to be tested, DTNB and butyrylthiocholine as a substrate, and the mixture was incubated at 25° C. for a predetermined time.
as §4, with “Enzyme activity-inhibiting” for “Inhibiting”, “absorbances” for “enzyme activities”, “substrate” for “homogenate”

[3] = molecular target: T3, acetylcholinesterase (Rattus norvegicus, UniProt P37136); assay: Acetylcholinesterase-inhibiting activity (Test example 1; crude synaptosome fraction of rat cerebrum, modified Ellman method)
T3 construct: a crude synaptosome fraction of a rat cerebrum was used; from tissue; host or cells: rat cerebrum, crude synaptosome fraction
T3 sequence (P37136 32-614): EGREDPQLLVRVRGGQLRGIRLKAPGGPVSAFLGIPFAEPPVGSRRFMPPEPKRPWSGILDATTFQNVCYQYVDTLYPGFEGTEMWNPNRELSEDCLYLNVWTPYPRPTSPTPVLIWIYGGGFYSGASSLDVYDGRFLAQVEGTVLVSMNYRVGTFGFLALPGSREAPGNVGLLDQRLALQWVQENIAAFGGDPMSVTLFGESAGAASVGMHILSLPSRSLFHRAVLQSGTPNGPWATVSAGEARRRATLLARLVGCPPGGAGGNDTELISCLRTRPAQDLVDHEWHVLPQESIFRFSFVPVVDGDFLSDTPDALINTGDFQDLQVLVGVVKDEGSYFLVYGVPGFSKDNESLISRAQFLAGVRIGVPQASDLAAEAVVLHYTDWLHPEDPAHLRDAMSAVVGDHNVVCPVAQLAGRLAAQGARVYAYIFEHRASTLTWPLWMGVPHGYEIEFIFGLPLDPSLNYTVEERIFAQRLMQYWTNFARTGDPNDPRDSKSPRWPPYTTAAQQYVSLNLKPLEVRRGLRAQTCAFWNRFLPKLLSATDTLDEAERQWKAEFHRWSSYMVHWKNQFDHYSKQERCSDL
Description: Acetylcholinesterase-inhibiting activity
As an enzyme source, a crude synaptosome fraction of a rat cerebrum was used.
That is, to the crude synaptosome fraction of the rat cerebrum suitably diluted with a 0.1M phosphate buffer were added each compound to be tested, 5,5'-dithiobis(2-nitrobenzoic acid) (hereinafter referred to as DTNB) and acetylthiocholine as a substrate, and the mixture was incubated at 25° C. for a predetermined time.
as §4, with “Enzyme activity-inhibiting” for “Inhibiting”, “absorbances” for “enzyme activities”, “substrate” for “homogenate”

[4] = molecular target: T4, A type monoamine oxidase (Rattus norvegicus, UniProt P21396); assay: A type monoamine oxidase-inhibiting activity (Test example 3; rat cerebrum homogenate, 14C-5-HT substrate); details: 5-HT 200 μM, preincubated 37° C. 30 minutes, Hill analysis, read-out: IC50 value, Inhibition of A type monoamine oxidase
T4 construct: a rat cerebrum homogenized in a 0.1M phosphate buffer was used; from tissue; host or cells: rat cerebrum homogenate
T4 sequence (P21396 1-526): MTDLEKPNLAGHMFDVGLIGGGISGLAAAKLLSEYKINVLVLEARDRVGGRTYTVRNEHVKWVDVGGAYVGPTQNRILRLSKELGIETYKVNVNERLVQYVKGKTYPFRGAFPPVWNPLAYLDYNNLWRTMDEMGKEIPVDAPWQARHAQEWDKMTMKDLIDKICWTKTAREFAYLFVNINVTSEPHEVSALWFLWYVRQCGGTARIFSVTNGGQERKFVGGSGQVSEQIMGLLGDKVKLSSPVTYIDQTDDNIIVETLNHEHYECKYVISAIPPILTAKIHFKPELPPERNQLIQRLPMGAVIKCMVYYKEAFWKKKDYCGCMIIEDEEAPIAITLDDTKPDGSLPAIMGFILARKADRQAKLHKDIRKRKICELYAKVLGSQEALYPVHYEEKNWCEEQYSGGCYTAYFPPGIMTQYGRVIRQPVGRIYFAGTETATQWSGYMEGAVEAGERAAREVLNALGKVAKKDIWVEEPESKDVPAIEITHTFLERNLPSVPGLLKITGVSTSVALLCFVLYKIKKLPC
Description: as §1, §2, §3, §4

Row | SMILES | pIC50 [1] | pIC50 [2] | pIC50 [3] | pIC50 [4]
1 | O=C(CCC1CCN(Cc2ccccc2)CC1)c1ccc(Nc2ncnc3c2CCC3)cc1 [Example 8, N-(5,6-dihydro-7H-cyclopenta[d]pyrimidin-4-yl)-4-[3(1-benzylpiperidin-4-yl)propanoyl]aniline. 2HCl] | < 5.00 | < 5.00 | 8.70 | 7.07
2 | O=C(/C=C/C1CCN(Cc2ccccc2)CC1)c1ccc(Nc2ncnc3c2CCCC3)cc1 [Example 9, (E)-N-(5,6,7,8-tetrahydroquinazolin-4-yl)-4-[3-(1-benzylpiperidin-4-yl)propenoyl]aniline] | < 5.00 | < 5.00 | 8.85 | 5.85
3 | O=C1c2ccc(Nc3ncnc4c3CCC4)cc2CC1CC1CCN(Cc2ccccc2)CC1 (stereo not drawn) [Example 22, 4-[1-Oxo-2-(1-benzylpiperidin-4-yl)methylindan-5-yl]amino-5,6-dihydro-7H-cyclopenta[d]pyrimidine] | < 5.00 | < 5.00 | 8.14 | 6.09
4 | Cc1cncnc1Nc1ccc(C(=O)CC2CCN(Cc3ccccc3)CC2)cc1 [Example 25, N-(5-methylpyrimidin-4-yl)-4-[(1-benzylpiperidin-4-yl)acetyl]aniline] | 5.17 | < 5.00 | 6.60 | 6.47
5 | Cc1ncnc(Nc2ccc(C(=O)CCC3CCN(Cc4ccccc4)CC3)cc2)c1C [Example 2, N-(5,6-dimethylpyrimidin-4-yl)-4-[3-(1-benzylpiperidin-4-yl)propanoyl]aniline] | < 5.00 | < 5.00 | 8.44 | 6.05
6 | O=C(CCC1CCN(Cc2ccccn2)CC1)c1ccc(Nc2ncnc3c2CCC3)cc1 [Example 53, N-(5,6-dihydro-7H-cyclopenta-[d]pyrimidin-4-yl)-4-{3-[1-(2-pyridylmethyl)piperidin-4-yl]-propanoyl}aniline] | < 5.00 | < 5.00 | 7.77 | 7.07
7 | N#Cc1ccc(Nc2ncnc3c2CCC3)cc1 [Compound B, 4-(4-cyanoanilino)-5,6-dihydro-7H-cyclopenta[d]pyrimidine, reference compound] | < 5.00 | < 5.00 | < 5.00 | 6.80
8 | O=C(/C=C/C1CCN(Cc2ccccc2)CC1)c1ccc(Nc2ncnc3c2CCC3)cc1 [Example 6, (E)-N-(5,6-dihydro-7H-cyclopenta[d]pyrimidin-4-yl)-4-[3-(1-benzylpiperidin-4-yl)propenoyl]aniline] | < 5.00 | < 5.00 | 8.51 | 6.66
9 | O=C(CC1CCN(Cc2ccccc2)CC1)c1ccc(Nc2ncnc3c2CCC3)cc1 [Example 26, N-(5,6-dihydro-7H-cyclopenta[d]pyrimidin-4-yl)-4-[(1-benzylpiperidin-4-yl)acetyl]aniline] | < 5.00 | < 5.00 | 6.82 | 7.25
10 | Cc1cncnc1Nc1ccc(C(=O)CC2CCN(Cc3cccs3)CC2)cc1 [Example 88, N-(5-methylpyrimidin-4-yl)-4-{[1-(2-thienylmethyl)piperidin-4-yl]acetyl}aniline] | 5.68 | < 5.00 | 6.48 | 6.60
11 | O=C1C(=CC2CCN(Cc3ccccc3)CC2)Cc2cc(Nc3ncnc4c3CCC4)ccc21 [Example 21, 4-[1-Oxo-2-(1-benzylpiperidin-4-yl)methyleneindan-5-yl]amino-5,6-dihydro-7H-cyclopenta[d]pyrimidine] | < 5.00 | < 5.00 | 7.70 | 6.22
12 | CCc1cncnc1Nc1ccc(C(=O)CC2CCN(Cc3ccccc3)CC2)cc1 [Example 93, N-(5-ethylpyrimidin-4-yl)-4-[(1-benzylpiperidin-4-yl)-acetyl]aniline] | 5.14 | < 5.00 | 6.70 | 6.38
13 | O=C(CCC1CCN(Cc2ccccc2)CC1)c1ccc(Nc2ncnc3c2CCCC3)cc1 [Example 10, N-(5,6,7,8-tetrahydroquinazolin-4-yl)-4-[3-(1-benzyl-piperidin-4-yl)propanoyl]aniline] | < 5.00 | < 5.00 | 8.96 | 6.49
14 | O=C(CC1CCN(Cc2cccs2)CC1)c1ccc(Nc2ncnc3c2CCC3)cc1 [Example 87, N-(5,6-dihydro-7H-cyclopenta-[d]pyrimidin-4-yl)-4-{[1-(2-thienylmethyl)piperidin-4-yl]-acetyl}aniline] | < 5.00 | < 5.00 | 6.57 | 7.46
15 | Cc1ncnc(Nc2ccc(C(=O)/C=C/C3CCN(Cc4ccccc4)CC3)cc2)c1C [Example 1, (E)-N-(5,6-dimethylpyrimidin-4-yl)-4-[3-(1-benzyl-piperidin-4-yl)propenoyl]aniline] | < 5.00 | < 5.00 | 8.48 | 5.80
